Assay results as given in US11254686B1 (Corvus Pharmaceuticals, Inc., priority 2017, dated 2022).

Experiments:
adenosine A2A receptor = adenosine A2A receptor (Homo sapiens (Human), UniProt P29274); experiment: Adenosine receptor activity assay (Table 1), A2A activity; type: biochemical; conditions: read-out: Ave A2A cAMP IC50
[1] = Hepatocyte (Hep) intrinsic clearance, rat; type: in vitro ADME; conditions: hepatocytes
adenosine A3 receptor [2] = target: T1, adenosine A3 receptor (Homo sapiens (Human), UniProt P0DMS8); experiment: A3 cAMP IC50 assay (Table 1); type: biochemical
T1 sequence (P0DMS8 whole entry): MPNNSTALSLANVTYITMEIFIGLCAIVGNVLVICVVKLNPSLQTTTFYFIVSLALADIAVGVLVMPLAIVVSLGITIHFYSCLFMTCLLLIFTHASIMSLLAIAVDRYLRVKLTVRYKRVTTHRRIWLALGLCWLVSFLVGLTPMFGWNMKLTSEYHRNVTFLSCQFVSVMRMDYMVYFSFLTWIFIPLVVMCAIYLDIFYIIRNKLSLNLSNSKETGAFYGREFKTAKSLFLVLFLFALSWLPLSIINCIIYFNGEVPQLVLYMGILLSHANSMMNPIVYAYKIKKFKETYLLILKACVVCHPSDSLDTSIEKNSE

CYP3A4 = CYP3A4 (Homo sapiens (Human), UniProt P08684); experiment: CYP450 inhibition at 10 μM, CYP3A4; type: in vitro ADME; conditions: human, 10 μM, read-out: CYP 450 % INH @ 10 μM
CYP3A4, sequence (P08684 whole entry): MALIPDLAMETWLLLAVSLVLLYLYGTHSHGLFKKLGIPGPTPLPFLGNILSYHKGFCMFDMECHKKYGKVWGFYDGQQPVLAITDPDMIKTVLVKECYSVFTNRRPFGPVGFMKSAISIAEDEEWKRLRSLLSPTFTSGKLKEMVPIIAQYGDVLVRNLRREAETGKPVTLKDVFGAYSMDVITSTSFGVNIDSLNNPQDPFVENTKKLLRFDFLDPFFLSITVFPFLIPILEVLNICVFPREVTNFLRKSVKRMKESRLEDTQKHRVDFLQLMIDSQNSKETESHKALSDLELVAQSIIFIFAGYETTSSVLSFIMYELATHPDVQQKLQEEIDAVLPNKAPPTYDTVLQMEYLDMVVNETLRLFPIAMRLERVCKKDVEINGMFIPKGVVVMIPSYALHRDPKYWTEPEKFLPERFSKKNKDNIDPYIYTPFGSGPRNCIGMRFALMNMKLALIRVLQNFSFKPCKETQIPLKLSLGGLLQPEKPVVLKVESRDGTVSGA

adenosine A1 receptor [3] = target: T2, adenosine A1 receptor (Homo sapiens (Human), UniProt P30542); experiment: A1 cAMP IC50 assay (Table 1); type: biochemical
T2 sequence (P30542 whole entry): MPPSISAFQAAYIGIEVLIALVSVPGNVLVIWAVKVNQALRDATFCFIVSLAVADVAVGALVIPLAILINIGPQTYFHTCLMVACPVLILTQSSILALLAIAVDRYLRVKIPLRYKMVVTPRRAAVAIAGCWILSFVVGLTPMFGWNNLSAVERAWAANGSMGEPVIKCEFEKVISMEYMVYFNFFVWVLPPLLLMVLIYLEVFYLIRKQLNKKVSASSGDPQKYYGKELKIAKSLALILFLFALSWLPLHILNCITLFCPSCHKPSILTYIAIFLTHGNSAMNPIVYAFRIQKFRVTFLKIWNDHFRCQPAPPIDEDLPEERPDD

adenosine A2B receptor = adenosine A2B receptor (Homo sapiens (Human), UniProt P29275); experiment: Adenosine receptor activity assay (Table 1), A2B activity; type: biochemical; conditions: for Ratio: A2A activity to A2B activity (A2A/A2B); for IC50: read-out: Ave A2B cAMP IC50
adenosine A2B receptor, sequence (P29275 whole entry): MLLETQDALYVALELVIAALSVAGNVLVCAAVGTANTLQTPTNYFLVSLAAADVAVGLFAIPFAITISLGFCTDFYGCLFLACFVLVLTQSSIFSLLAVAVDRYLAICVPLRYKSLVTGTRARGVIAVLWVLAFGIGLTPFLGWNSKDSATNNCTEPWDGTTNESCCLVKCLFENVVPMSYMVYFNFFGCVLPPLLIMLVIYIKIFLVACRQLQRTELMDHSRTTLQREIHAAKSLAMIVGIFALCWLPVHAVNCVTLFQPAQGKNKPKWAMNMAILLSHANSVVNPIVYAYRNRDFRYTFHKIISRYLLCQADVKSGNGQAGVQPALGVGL

[4] = Liver microsome (LM) intrinsic clearance, human; type: in vitro ADME
[5] = Hepatocyte (Hep) intrinsic clearance, human; type: in vitro ADME; conditions: hepatocytes
[6] = Hepatocyte (Hep) intrinsic clearance, monkey; type: in vitro ADME; conditions: hepatocytes
[7] = Hepatocyte (Hep) intrinsic clearance, dog; type: in vitro ADME; conditions: hepatocytes
[8] = Liver microsome (LM) intrinsic clearance, rat; type: in vitro ADME
CYP2D6 = CYP2D6 (Homo sapiens (Human), UniProt P10635); experiment: CYP450 inhibition at 10 μM, CYP2D6; type: in vitro ADME; conditions: read-out: CYP 450 % INH @ 10 μM
CYP2D6, sequence (P10635 whole entry): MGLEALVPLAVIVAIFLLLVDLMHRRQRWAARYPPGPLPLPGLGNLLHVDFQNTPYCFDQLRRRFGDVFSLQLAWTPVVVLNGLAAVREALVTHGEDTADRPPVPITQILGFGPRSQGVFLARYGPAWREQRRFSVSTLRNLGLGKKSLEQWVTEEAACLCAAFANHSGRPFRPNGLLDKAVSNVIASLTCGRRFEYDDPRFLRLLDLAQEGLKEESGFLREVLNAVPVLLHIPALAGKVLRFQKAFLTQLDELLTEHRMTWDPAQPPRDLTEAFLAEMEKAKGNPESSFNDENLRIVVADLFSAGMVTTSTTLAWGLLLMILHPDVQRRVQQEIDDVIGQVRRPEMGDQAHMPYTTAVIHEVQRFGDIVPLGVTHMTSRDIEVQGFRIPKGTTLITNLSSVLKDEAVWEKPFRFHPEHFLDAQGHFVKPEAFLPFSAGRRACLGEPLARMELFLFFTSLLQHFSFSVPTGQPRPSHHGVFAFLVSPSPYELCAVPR

adenosine A1 receptor [9] = target: T2, adenosine A1 receptor; experiment: Adenosine receptor activity assay (Table 1), A1 cAMP; type: cell-based
adenosine A3 receptor [10] = target: T1, adenosine A3 receptor; experiment: Adenosine receptor activity assay (Table 1), A3 cAMP; type: cell-based
[11] = Hepatocyte intrinsic clearance, rat; type: in vitro ADME
[12] = Hepatocyte intrinsic clearance, human; type: in vitro ADME
CYP 450 = experiment: CYP450 inhibition at 10 μM; type: in vitro ADME

adenosine A2A receptor, sequence (P29274 whole entry): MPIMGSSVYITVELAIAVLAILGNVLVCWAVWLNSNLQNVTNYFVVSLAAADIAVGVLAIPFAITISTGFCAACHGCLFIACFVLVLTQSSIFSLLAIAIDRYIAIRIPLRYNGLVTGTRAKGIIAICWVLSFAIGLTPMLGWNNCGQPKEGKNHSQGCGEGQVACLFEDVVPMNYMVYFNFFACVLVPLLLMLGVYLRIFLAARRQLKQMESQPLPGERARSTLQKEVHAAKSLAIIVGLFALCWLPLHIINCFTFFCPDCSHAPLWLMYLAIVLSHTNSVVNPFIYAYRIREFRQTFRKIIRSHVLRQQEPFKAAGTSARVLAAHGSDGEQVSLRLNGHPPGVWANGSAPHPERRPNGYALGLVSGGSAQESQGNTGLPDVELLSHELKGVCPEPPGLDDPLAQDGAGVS

Row | IC50 (adenosine A2A receptor) [nM] | hepatocyte CLint [1] [µL/min/1e6 cells] | IC50 (adenosine A3 receptor [2]) [nM] | inhibition at 10 µM (CYP3A4) [%] | IC50 (adenosine A1 receptor [3]) [nM] | Ratio (adenosine A2B receptor) | IC50 (adenosine A2B receptor) [nM] | LM CLint [4] [μL/min/mg/protein] | hepatocyte CLint [5] [µL/min/1e6 cells] | hepatocyte CLint [6] [µL/min/1e6 cells] | hepatocyte CLint [7] [µL/min/1e6 cells] | LM CLint [8] [μL/min/mg/protein] | inhibition at 10 µM (CYP2D6) [%] | IC50 (adenosine A1 receptor [9]) [nM] | IC50 (adenosine A3 receptor [10]) [nM] | Hep CLint [11] [mL/min/10^6 cells] | Hep CLint [12] [mL/min/10^6 cells] | CYP 450 % INH @ 10 μM (CYP 450) [%] | Molecule
1 | > 500 | 4.46 | > 500 | 0 | > 500 | 15.14 | 50 to 100 | 5.60 | 2.21 | 0.19 | 1.73 | 0.0 | 10 | – | – | – | – | – | C[C@H](Nc1nc(C(=O)N2CC[C@H](O)C2)c2sccc2n1)c1ccccn1 [Example Z58, ((S)-3-Hydroxypyrrolidin-1-yl)(2-(((S)-1-(pyridin-2-yl)ethyl)amino)thieno[3,2-d]pyrimidin-4-yl)methanone]
2 | > 500 | – | – | – | – | 149.76 | < 10 | – | – | – | – | – | – | > 500 | > 500 | 5.95 | 1.64 | 19.6 | (6-Amino-2-(((S)-1-(5-fluoropyridin-3-yl)ethyl)amino)thieno[3,2-d]pyrimidin-4-yl)((S)-3-hydroxypyrrolidin-1-yl)methanone [Example Z212]
